What was measured:
[1] = Stability in human plasma (PS) assay; assay type: in vitro ADME; details: 37° C., 120 minutes, read-out: t1/2 (min) hPS
Procedure: In an embodiment, stability in human plasma (PS) assay was carried out. Test compounds (1 μM, final DMSO concentration 1%) were incubated in 5 aliquots of 70 μL each (one for each time point), in duplicates, at 37° C. with 100 rpm orbital shaking. Five time points over a duration 120 minutes have been analysed. Two reference compounds were analysed in parallel. The reactions were stopped by the addition of 420 μL of acetonitrile-water mixture (90:10) and subsequent plasma proteins sedimentation were achieved by centrifugation. Supernatants were analysed in a Shimadzu VP HPLC system with a reverse phase column, coupled with a tandem mass spectrometer API 3000 (PE Sciex). Both the positive and negative ion modes of the TurbolonSpray ion source were used. Acquisition and analysis of the data were performed using Analyst 1.5.2 software (PE Sciex). The percentage of the test compounds remaining after incubation in plasma and their half-lives (T1/2) were calculated.

[2] = Human plasma protein binding (PPB) assay, equilibrium dialysis; assay type: in vitro ADME; details: non-diluted plasma, pH 7.4, percentage of plasma protein bounded compound, 5 hours dialysis, read-out: hPPB
Procedure: In an embodiment, human plasma protein binding (PPB) assay was carried out. The assay was performed in a multiple-use 96-well dialysis unit (HTD96b dialyzer). Each individual well unit consisted of 2 chambers separated by a vertically aligned dialysis membrane of predetermined pore size (MWCO 12-14 kDa). 120 μl of non-diluted plasma spiked with the compound (1 μM, 1% final DMSO concentration) was added to one chamber and the same volume of phosphate buffer saline pH 7.4 to the other chamber. HTD96b dialyzer was covered with adhesive sealing film and incubated at 37° C. and 100 rpm orbital shaking for 5 hours. Verapamil was also evaluated in parallel as reference compound. For sample preparation, an aliquot of the content of each chamber was mixed with the same volume of the blank opposite matrix. […] Supernatants were analysed using a Shimadzu VP HPLC system with a reverse phase column, coupled with a tandem mass spectrometer API 3000 (PE Sciex). […]
The percentage of plasma protein bounded compound and its recovery were calculated using the equations below: […]
The percentage of plasma protein bounded compound and its recovery were calculated using the values obtained for each compound in the quantification of the 3 samples (in buffer, plasma and standard solution).

HepG2 cell line = test: In vitro cytotoxicity assay (MTS tetrazolium reduction); assay type: cell-based; details: HepG2, 48 h
Procedure: In an embodiment, in vitro cytotoxicity assay was carried out. In vitro cytotoxicity assay was performed in HepG2 cell line using a tetrazolium reduction assay for cell viability evaluation (MTS reduction as described by Cory A. et al (Cancer Commun. 1991, 3 (7), 207-212)). The assay was performed in 96-well plates for 48 h at 37° C. and 5% CO2 in incubation medium (low glucose DMEM with Glutamax, 10% FBS, 1% Pen/Strep and DMSO). Cells were exposed to 8 different compound concentrations in successive dilutions (usually, base 2), plus a positive control (a compound in a concentration known to decrease cell viability above 50%) and a negative control (incubation medium). Six replicate wells were assayed for each condition. Compound stock solutions were prepared in DMSO at 20 mM, whenever possible, filter sterilized, aliquoted and stored at −20° C. The maximum compound concentrations tested depend on its solubility in incubation medium, and on the maximum DMSO percentage allowable without loss of cell viability. At the end of the incubation period, tetrazolium reagent was added (CellTiter 96′ AQueous Solution from Promega); cells were incubated for another 3 hours in order to promote tetrazolium reduction to formazan by viable cells. The amount of soluble formazan produced was evaluated by 490 nm absorbance reading in a spectrophotometer plate reader. […] Whenever possible, IC50 was calculated as the concentration of compound that reduces cell viability by 50%.

**Q.** What does the source list for COc1cccc2ccc(N3CCC(c4nc(-c5ccc(OC(F)(F)F)cc5)no4)CC3)nc12 [Compound 3, 5-(1-(8-methoxyquinolin-2-yl)piperidin-4-yl)-3-(4-(trifluoromethoxy)phenyl)-1,2,4-oxadiazole]?
**A.** half-life at 1 μM [1]: > 240 min; fraction unbound at 5 h, 1 μM [2]: ≤ 0.001; IC50 (HepG2 cell line; Homo sapiens): > 100 µM; IC50 (HepG2 cell line; Table 2, cytotoxicity, MTS): > 100 µM
